Key:
GPR40 [1] = molecular target: T1, GPR40 (Homo sapiens, UniProt O14842); assay: Cell-based aequorin assay (CHO cells stably expressing GPR40 and aequorin); design: expressed in transfected cells; host or cells: CHO cells stably transfected with GPR40 and aequorin; details: activation of human GPR40, CHO cells, 0.01% HSA
In short: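 CHO cells stably co-expressing GPR40 and aequorin, loaded with coelenterazine (1 ug/mL, 2 h, room temperature) in H/HBSS with 20 mM Hepes and 0.01% fatty acid-free HSA. Serially diluted compounds added; luminescence recorded over 20 s. EC50 from dose-response of maximum relative light units.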

GPR40 [2] = molecular target: T1, GPR40; assay: Inositol phosphate accumulation assay (A9_GPR40 cells); format: cell-based; design: expressed in transfected cells; host or cells: CHO cells stably transfected with GPR40 and aequorin; details: inositol phosphate assay, A9_GPR40 cells, 1 hour; read-out: IP3 EC50
In short: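 [^3H] inositol phosphate accumulation was measured by SPA after 1 h compound exposure at 37° C in HBSS/10 mM LiCl containing HSA, ending with a 20 mM formic acid quench. The GPR40-transfected A9 cells had first been labelled overnight (16 h) with 1 μCi/mL ^3H-inositol.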

T1 sequence (O14842 whole entry): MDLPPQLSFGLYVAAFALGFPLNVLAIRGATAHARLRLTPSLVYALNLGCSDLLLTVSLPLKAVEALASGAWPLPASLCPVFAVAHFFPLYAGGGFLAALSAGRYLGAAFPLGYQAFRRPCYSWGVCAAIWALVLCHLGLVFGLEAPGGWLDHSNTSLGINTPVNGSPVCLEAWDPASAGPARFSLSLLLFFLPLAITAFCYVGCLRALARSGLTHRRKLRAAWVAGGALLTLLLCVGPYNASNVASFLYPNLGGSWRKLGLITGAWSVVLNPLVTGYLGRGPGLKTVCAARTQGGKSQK

With `C=C(c1cc(COc2cccc([C@@H](CC(=O)O)CC3CC3)c2)ccc1-c1cc(OC)ccc1F)C(C)(C)C` (single isomer, unassigned) [Example 69.15, (3R)-4-Cyclopropyl-3-(3-(((2-(1-(1,1-dimethylethyl)ethenyl)-2′-fluoro-5′-(methyloxy)-1,1′-biphenyl-4-yl)methyl)oxy)phenyl)butanoic acid or (3S)-4-cyclopropyl-3-(3-(((2-(1-(1,1-dimethylethyl)ethenyl)-2′-fluoro-5′-(methyloxy)-1,1′-biphenyl-4-yl)methyl)oxy)phenyl)butanoic acid] the EC50 (GPR40 [1]) was 100 to 1000 nM and the EC50 (GPR40 [2]) was 10 to 100 nM.

`COc1ccc(F)c(-c2ccc(COc3cccc([C@@H](CC(=O)O)CC4CC4)c3)cc2CC(C)(C)C)c1` (single isomer, unassigned) [Example 69.16, (3R)-4-Cyclopropyl-3-(3-(((2-(2,2-dimethylpropyl)-2′-fluoro-5′-(methyloxy)-1,1′-biphenyl-4-yl)methyl)oxy)phenyl)butanoic acid or (3S)-4-cyclopropyl-3-(3-(((2-(2,2-dimethylpropyl)-2′-fluoro-5′-(methyloxy)-1,1′-biphenyl-4-yl)methyl)oxy)phenyl)butanoic acid] gave an EC50 (GPR40 [1]) of 10 to 100 nM and an EC50 (GPR40 [2]) of 10 to 100 nM.

`COc1ccc(F)c(-c2ccc(COc3cccc([C@@H](CC(=O)O)CC4CC4)c3)cc2C(F)C(C)(C)C)c1` (single isomer, unassigned) [Example 69.17, (3R)-4-cyclopropyl-3-(3-(((2′-fluoro-2-(1-fluoro-2,2-dimethylpropyl)-5′-(methyloxy)-1,1′-biphenyl-4-yl)methyl)oxy)phenyl)butanoic acid or (3S)-4-cyclopropyl-3-(3-(((2′-fluoro-2-(1-fluoro-2,2-dimethylpropyl)-5′-(methyloxy)-1,1′-biphenyl-4-yl)methyl)oxy)phenyl)butanoic acid] was tested, and the EC50 (GPR40 [1]) was 100 to 1000 nM and the EC50 (GPR40 [2]) was less than 10 nM.

In the case of `COc1ccc(F)c(-c2ccc(COc3cccc([C@@H](CC(=O)O)CC4CC4)c3)cc2C(OC)C(C)(C)C)c1` (single isomer, unassigned) [Example 69.18, (3R)-4-Cyclopropyl-3-(3-(((2-(2,2-dimethyl-1-(methyloxy)propyl)-2′-fluoro-5′-(methyloxy)-1,1′-biphenyl-4-yl)methyl)oxy)phenyl)butanoic acid or (3S)-4-cyclopropyl-3-(3-(((2-(2,2-dimethyl-1-(methyloxy)propyl)-2′-fluoro-5′-(methyloxy)-1,1′-biphenyl-4-yl)methyl)oxy)phenyl)butanoic acid], the EC50 (GPR40 [1]) is reported as 100 to 1000 nM and the EC50 (GPR40 [2]) is reported as less than 10 nM.

For `COc1ccc(F)c(-c2ccc(COc3cccc([C@@H](CC(=O)O)CC4CC4)c3)cc2C(O)(C(C)C)C(C)C)c1` (single isomer, unassigned) [Example 69.19, (3R)-4-Cyclopropyl-3-(3-(((2′-fluoro-2-(1-hydroxy-2-methyl-1-(1-methylethyl)propyl)-5′-(methyloxy)-1,1′-biphenyl-4-yl)methyl)oxy)phenyl)butanoic acid or (3S)-4-cyclopropyl-3-(3-(((2′-fluoro-2-(1-hydroxy-2-methyl-1-(1-methylethyl)propyl)-5′-(methyloxy)-1,1′-biphenyl-4-yl)methyl)oxy)phenyl)butanoic acid], the EC50 (GPR40 [1]) was 100 to 1000 nM and the EC50 (GPR40 [2]) was 100 to 1000 nM.

Work on `COc1ccc(F)c(-c2ccc(COc3cccc(C(CC(=O)O)CC4CC4)c3)cc2CC(C)C)c1` (single isomer, unassigned) [Example 69.21, (3R)-4-Cyclopropyl-3-(3-(((2′-fluoro-5′-(methyloxy)-2-(2-methylpropyl)-1,1′-biphenyl-4-yl)methyl)oxy)phenyl)butanoic acid or (3S)-4-cyclopropyl-3-(3-(((2′-fluoro-5′-(methyloxy)-2-(2-methylpropyl)-1,1′-biphenyl-4-yl)methyl)oxy)phenyl)butanoic acid] yielded an EC50 (GPR40 [1]) of 100 to 1000 nM and an EC50 (GPR40 [2]) of 10 to 100 nM.

`COc1ccc(F)c(-c2ccc(COc3cccc(C(CC(=O)O)CC4CC4)c3)cc2C(C)C(C)(C)C)c1` (single isomer, unassigned) [Example 69.22] showed an EC50 (GPR40 [1]) of 100 to 1000 nM and an EC50 (GPR40 [2]) of less than 10 nM.

— US8030354B2, “Substituted biphenyl GPR40 modulators” (Amgen Inc., priority 2007, dated 2011)
